Substitutions are numbered along the chain they refer to. “Also recorded” adds a separate entry of the source. Blank lines part the entries; values can stand above or below the compound they belong to.
Columns and labels:
[1] = target: T1, T315I ABL mutant kinase domain (Homo sapiens, UniProt P00519, T315I); assay: ATP site-dependent displacement assay, indolinone probe of 3.1; format: binding
T1 construct: ABL kinase domain (corresponding to residues 229-512); GST (N, cleaved yes); PreScission cleavage site (N, cleaved yes); made in house; host or cells: High5 insect cells (baculovirus)
T1 sequence (P00519 229-512 T315I): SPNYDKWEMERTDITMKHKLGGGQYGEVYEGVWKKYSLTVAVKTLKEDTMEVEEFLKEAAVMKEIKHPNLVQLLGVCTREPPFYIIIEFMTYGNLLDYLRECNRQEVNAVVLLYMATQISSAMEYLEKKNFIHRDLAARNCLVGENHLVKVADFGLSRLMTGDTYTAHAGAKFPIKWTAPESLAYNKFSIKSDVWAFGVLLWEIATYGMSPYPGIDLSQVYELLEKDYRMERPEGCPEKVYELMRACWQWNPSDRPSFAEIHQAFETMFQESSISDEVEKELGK
Description: (§1) KD values, are the average of three independent experiments.

[2] = target: T1, T315I ABL mutant kinase domain; assay: ATP site-dependent displacement assay, indolinone probe of 3.2; format: binding
Description: as §1

[3] = target: T1, T315I ABL mutant kinase domain; assay: Indolinone probe titration (fluorescence), probe of 3.1; format: binding; conditions: Table 1; 10 nM enzyme, probe 3 μM to 0
Protocol: (§2) Data analysis was performed using the Dynafit software.

[4] = target: T2, Wild-type ABL 0P (unphosphorylated) kinase domain (Homo sapiens, UniProt P00519); assay: as above; format: binding; conditions: Table 1; 10 nM enzyme, probe 3 μM to 0
T2 construct: ABL kinase domain (corresponding to residues 229-512); GST (N, cleaved yes); PreScission cleavage site (N, cleaved yes); made in house; host or cells: High5 insect cells (baculovirus)
T2 sequence (P00519 229-512): T1 sequence (P00519 229-512 T315I) with I87T
Protocol: as §2

[5] = target: T3, wild-type ABL kinase domain (Homo sapiens, UniProt P00519); assay: as above; format: binding; conditions: Table 1; 10 nM enzyme, probe 3 μM to 0
T3 construct: ABL kinase domain (corresponding to residues 229-512); GST (N, cleaved yes); PreScission cleavage site (N, cleaved yes); made in house; host or cells: High5 insect cells (baculovirus)
T3 sequence (P00519 229-512): T1 sequence (P00519 229-512 T315I) with I87T
Protocol: as §2

[6] = target: T2, Wild-type ABL 0P (unphosphorylated) kinase domain; assay: ATP site-dependent displacement assay, indolinone probe of 3.1; format: binding
Description: as §1

[7] = target: T3, wild-type ABL kinase domain; assay: as above; format: binding
Description: as §1

[8] = target: T2, Wild-type ABL 0P (unphosphorylated) kinase domain; assay: ATP site-dependent displacement assay, indolinone probe of 3.2; format: binding
Description: as §1

[9] = target: T3, wild-type ABL kinase domain; assay: as above; format: binding
Description: as §1

[10] = target: T1, T315I ABL mutant kinase domain; assay: Indolinone probe titration (fluorescence), probe of 3.2; format: binding; conditions: Table 4
Protocol: (§3) The titration experiment was performed as follows: 10 nM ABL kinase domains (wild-type or T315I mutant), indolinone concentration from 3 μM to 0, with dilution steps 1:1.5 in 50 mM TrisHCl, pH 7.5, 150 mM NaCl, 5 mM MgCl2, 1 mM MnCl2, 1 mM DTT, 1% DMSO, 3 μM NaaVO4(buffer 1).

[11] = target: T2, Wild-type ABL 0P (unphosphorylated) kinase domain; assay: as above; format: binding; conditions: Table 4
Protocol: as §3

[12] = target: T3, wild-type ABL kinase domain; assay: as above; format: binding; conditions: Table 4
Protocol: as §3

[13] = target: T4, BCR-ABL in K-562 leukemia cells (Homo sapiens, UniProt P00519); assay: Immunoblotting of K-562 leukemia cells, inhibition of BCR-ABL signaling; format: cell-based; conditions: K-562 cells treated for one hour
T4 construct: endogenously expressing BCR-ABL cells; endogenous in cells; host or cells: K-562; the other entry of the earlier key: BCR (P11274, Breakpoint cluster region protein)

[14] = target: T5, wild-type ABL in HCT-116 transfected cells (Homo sapiens, UniProt P00519); assay: Immunoblotting of transfected HCT-116 cells (pY412-ABL); format: cell-based; conditions: 5 μM, HCT-116 transfected with wild-type construct, FIG. 3
T5 construct: ABL cDNA (corresponding to residues 27-1130); expressed in transfected cells; host or cells: HCT-116
Protocol: (§4) Amplification was performed using the forward oligonucleotide:
(§5) Immunoblotting was performed according to standard methods.

[15] = target: T6, T315I ABL mutant in HCT-116 transfected cells (Homo sapiens, UniProt P00519, T315I); assay: as above; format: cell-based; conditions: 5 μM, HCT-116 transfected with T315I mutant construct, FIG. 3
T6 construct: ABL cDNA (corresponding to residues 27-1130); expressed in transfected cells; host or cells: HCT-116
Protocol: as §4
Oligonucleotide used in the mutagenesis reaction was:
as §5

[16] = Tables 2 and 3, probe 3.1, 3 μM highest inhibitor concentration
[17] = Tables 5 and 6, probe 3.2, 3 μM highest inhibitor concentration, average of three experiments
[18] = Table 2, probe 3.1, 3 μM highest inhibitor concentration
[19] = Table 5, probe 3.2, 3 μM highest inhibitor concentration, average of three experiments

SMILES: CC(C)NCc1ccc(C(=O)Nc2n[nH]c3sc(C(=O)NC(C)(C)c4ccccc4)cc23)cc1 [Compound 11, 3-[4-(Isopropylamino-methyl)benzoylamino)-1H-thieno[2,3-c]pyrazole-5-carboxylic acid (1-methyl-1-phenyl-ethyl)-amide]
Kd [1, 16]: 12 ± 2.5 nM
Kd [2, 17]: 11 ± 2.6 nM

SMILES: CC(C)(NC(=O)c1cc2c(NC(=O)c3ccc(CN4CCCCC4)cc3)n[nH]c2s1)c1ccccc1Cl [Compound 9, 3-(4-Piperidin-1-ylmethyl-benzoylamino)-1H-thieno[2,3-c]pyrazole-5-carboxylic acid [1-(2-chloro-phenyl)-1-methyl-ethyl]-amide]
Kd [1, 16]: 14 ± 3.5 nM
Kd [2, 17]: 18 ± 3.4 nM

SMILES: CCN(CC)CCNC(=O)c1c(C)[nH]c(/C=C2\C(=O)Nc3ccc(S(=O)(=O)Cc4ccccc4)cc32)c1C [2,4-dimethyl-5-[2-oxo-5-phenylmethanesulfonyl-1,2-dihydro-indol-(3Z)-ylidenemethyl]-1H-pyrrole-3-carboxylic acid (2-diethylamino-ethyl)-amide]
Kd [3]: 140 ± 70 nM
Kd [4]: 50 ± 30 nM
Kd [5]: 40 ± 20 nM

SMILES: Nc1ncnc2c1ncn2[C@@H]1O[C@H](COP(=O)(O)OP(=O)(O)OP(O)(O)=S)[C@@H](O)[C@H]1O [ATPγS, reference compound]
Kd ([1]; Table 1 validation, probe 3.1 at 0.42 μM, highest conc. ATPγS 250 μM, Imatinib 10 μM, average of three experiments): 2000 ± 210 nM
Kd ([6]; Table 1 validation, probe 3.1 at 0.15 μM, highest conc. ATPγS 250 μM, Imatinib 10 μM, average of three experiments): 9500 ± 3400 nM
Kd ([7]; Table 1 validation, probe 3.1 at 0.12 μM, highest conc. ATPγS 250 μM, Imatinib 10 μM, average of three experiments): 9000 ± 1900 nM
Kd ([2]; Table 4 validation, probe 3.2 at 0.2 μM): 2610 ± 900 nM
Kd ([8]; Table 4 validation, probe 3.2 at 2 μM): 6600 ± 1600 nM
Kd ([9]; Table 4 validation, probe 3.2 at 3.3 μM): 4800 ± 1000 nM

SMILES: CC(C)(NC(=O)c1cc2c(NC(=O)c3ccc(CN4CCCCC4)cc3)n[nH]c2s1)c1ccccc1 [Compound 1, 3-(4-Piperidin-1-ylmethyl-benzoylamino)-1H-thieno[2,3-c]pyrazole-5-carboxylic acid (1-methyl-1-phenyl-ethyl)-amide]
Kd [1, 16]: 21 ± 6 nM
Kd [6, 18]: 240 ± 30 nM
Kd [7, 18]: 250 ± 75 nM
Kd [2, 17]: 37 ± 13 nM
Kd [8, 19]: 278 ± 122 nM
Kd [9, 19]: 310 ± 26 nM
effect on Src [13]: no effect on Src
inhibition of ABL auto-phosphorylation of Y412 ([13]; FIG. 2): inhibit phosphorylation of Y412
inhibition of phosphorylation of downstream mediators Stat-5 and Crkl ([13]; FIG. 2): inhibit
inhibitory activity on ABL (pY412-ABL immunoblot) [14]: capable of inhibiting; also recorded: strong inhibitory activity
inhibitory activity on ABL (pY412-ABL immunoblot) [15]: capable of inhibiting; also recorded: strong inhibitory activity

SMILES: CC(C)(NC(=O)c1cc2c(NC(=O)c3ccc(CN4CCCCC4)cc3)n[nH]c2s1)c1cccc(F)c1 [Compound 13, 3-(4-Piperidin-1-ylmethyl-benzoylamino)-1H-thieno[2,3-c]pyrazole-5-carboxylic acid [1-(3-fluoro-phenyl)-1-methyl-ethyl]-amide]
Kd [1, 16]: 10 ± 4.6 nM
Kd [2, 17]: 6.3 ± 3.3 nM

SMILES: CN1CCC(Oc2ccc(C(=O)Nc3n[nH]c4sc(C(=O)NC(C)(C)c5ccccc5)cc34)cc2)CC1 [Compound 4, 3-[4-(1-Methyl-piperidin-4-yloxy)-benzoylamino]-1H-thieno[2,3-c]pyrazole-5-carboxylic acid (1-methyl-1-phenyl-ethyl)-amide]
Kd [1, 16]: 6 ± 3 nM
Kd [2, 17]: 2.7 ± 1 nM

Now from value to compound:

Kd [1, 16]: 4.1 ± 2 nM
Kd [2, 17]: 5.3 ± 4 nM
SMILES: CN1CCN(c2ccc(C(=O)Nc3n[nH]c4sc(C(=O)NC(C)(C)c5ccccc5)cc34)cc2)CC1 [Compound 5, 3-[4-(4-Methyl-piperazin-1-yl)-benzoylamino]-1H-thieno[2,3-c]pyrazole-5-carboxylic acid (1-methyl-1-phenyl-ethyl)-amide]

Kd [1, 16]: 8.4 ± 4 nM
Kd [2, 17]: 9.3 ± 2.5 nM
SMILES: CN1CCN(Cc2ccc(C(=O)Nc3n[nH]c4sc(C(=O)NC(C)(C)c5ccccc5)cc34)cc2)CC1 [Compound 10, 3-[4-(4-Methyl-piperazin-1-ylmethyl)-benzoylamino]-1H-thieno[2,3-c]pyrazole-5-carboxylic acid (1-methyl-1-phenyl-ethyl)-amide]

Kd [1, 16]: 47 ± 15 nM
Kd [6, 18]: 330 ± 150 nM
Kd [7, 18]: 370 ± 160 nM
Kd [2, 17]: 70 ± 22 nM
Kd [8, 19]: 350 ± 50 nM
Kd [9, 19]: 553 ± 136 nM
SMILES: CC(C)(NC(=O)c1cc2c(NC(=O)c3ccc(CN4CCOCC4)cc3)n[nH]c2s1)c1ccccc1F [Compound 3, 3-(4-Morpholin-4-ylmethyl-benzoylamino)-1H-thieno[2,3-c]pyrazole-5-carboxylic acid [1-(2-fluoro-phenyl)-1-methyl-ethyl]-amide]

Kd [1, 16]: 12 ± 6 nM
Kd [2, 17]: 8.3 ± 1.5 nM
SMILES: CN1CCN(c2ccc(C(=O)Nc3n[nH]c4sc(C(=O)NC(C)(C)c5ccccc5F)cc34)cc2)CC1 [Compound 8, 3-[4-(4-Methyl-piperazin-1-yl)-benzoylamino)-1H-thieno[2,3-c]pyrazole-5-carboxylic acid [1-(2-fluoro-phenyl)-1-methyl-ethyl]-amide]

Kd [1, 16]: 15 ± 4 nM
Kd [6, 18]: 107 ± 21 nM
Kd [7, 18]: 177 ± 32 nM
Kd [2, 17]: 15 ± 4 nM
Kd [8, 19]: 107 ± 21 nM
Kd [9, 19]: 177 ± 32 nM
SMILES: CC(C)(NC(=O)c1cc2c(NC(=O)c3ccc(CN4CCCCC4)cc3)n[nH]c2s1)c1ccccc1F [Compound 2, 3-(4-Piperidin-1-ylmethyl-benzoylamino)-1H-thieno[2,3-c]pyrazole-5-carboxylic acid [1-(2-fluoro-phenyl)-1-methyl-ethyl]-amide]

Kd [10]: 20 ± 8 nM
Kd [11]: 200 ± 100 nM
Kd [12]: 330 ± 120 nM
SMILES: CCN(CC)CCNC(=O)c1c(C)[nH]c(/C=C2\C(=O)Nc3ccc(S(=O)(=O)NC)cc32)c1-c1ccc(F)cc1F [N-[2-(diethylamino)ethyl]-4-(2,4-difluorophenyl)-2-methyl-5-((Z)-{5-[(methylamino)sulfonyl]-2-oxo-1,2-dihydro-3H-indol-3-ylidene}methyl)-1H-pyrrole-3-carboxamide]

Kd [1, 16]: 16 ± 3.7 nM
Kd [2, 17]: 11.7 ± 3.8 nM
SMILES: CC(C)(NC(=O)c1cc2c(NC(=O)c3ccc(N4CCOCC4)cc3)n[nH]c2s1)c1ccccc1 [Compound 12, 3-(4-Morpholin-4-yl-benzoylamino)-1H-thieno[2,3-c]pyrazole-5-carboxylic acid (1-methyl-1-phenyl-ethyl)-amide]

Kd [1, 16]: 20 ± 2 nM
Kd [2, 17]: 16.8 ± 3 nM
SMILES: CC(C)NCc1ccc(C(=O)Nc2n[nH]c3sc(C(=O)NC(C)(C)c4ccccc4F)cc23)cc1 [Compound 7]

Kd [1, 16]: 14 ± 5 nM
Kd [2, 17]: 17.4 ± 6 nM
SMILES: CC(C)(NC(=O)c1cc2c(NC(=O)c3ccc(CN4CCCCC4)cc3)n[nH]c2s1)c1ccc(F)cc1 [Compound 6, 3-(4-Piperidin-1-ylmethyl-benzoylamino)-1H-thieno[2,3-c]pyrazole-5-carboxylic acid [1-(4-fluoro-phenyl)-1-methyl-ethyl]-amide]
